The source of these data is US20240150365A1 (Hotspot Therapeutics, Inc., priority 2022, published 2024).

In assay [1] the target is T1, MALT1 (Homo sapiens, UniProt Q9UDY8).
T1 construct: Avi-tagged FL MALT-1 (Pharmaron, stored at −70° C.); Avi tag
T1 sequence (Q9UDY8 1-824): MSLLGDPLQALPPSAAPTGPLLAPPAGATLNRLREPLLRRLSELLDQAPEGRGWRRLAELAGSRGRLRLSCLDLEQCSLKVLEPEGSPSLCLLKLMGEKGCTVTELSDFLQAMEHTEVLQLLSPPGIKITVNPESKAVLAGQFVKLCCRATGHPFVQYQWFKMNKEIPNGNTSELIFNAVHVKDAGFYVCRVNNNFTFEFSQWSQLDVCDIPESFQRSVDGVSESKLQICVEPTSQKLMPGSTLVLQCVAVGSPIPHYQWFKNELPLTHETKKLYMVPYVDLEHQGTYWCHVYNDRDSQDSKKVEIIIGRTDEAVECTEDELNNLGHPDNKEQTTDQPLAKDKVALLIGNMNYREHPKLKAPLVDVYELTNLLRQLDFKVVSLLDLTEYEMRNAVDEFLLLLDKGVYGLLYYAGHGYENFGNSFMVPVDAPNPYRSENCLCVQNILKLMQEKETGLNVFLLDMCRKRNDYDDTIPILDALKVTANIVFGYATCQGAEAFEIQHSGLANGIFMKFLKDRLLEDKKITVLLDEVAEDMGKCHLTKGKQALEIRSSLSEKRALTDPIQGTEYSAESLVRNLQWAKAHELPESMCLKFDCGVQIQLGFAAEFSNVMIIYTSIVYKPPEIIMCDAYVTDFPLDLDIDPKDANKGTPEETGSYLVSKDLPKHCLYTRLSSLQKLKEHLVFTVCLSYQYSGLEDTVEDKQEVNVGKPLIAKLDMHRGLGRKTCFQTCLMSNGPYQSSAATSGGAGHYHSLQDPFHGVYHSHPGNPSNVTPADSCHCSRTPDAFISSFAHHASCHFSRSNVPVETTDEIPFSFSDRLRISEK
Kind of assay: MALT-1 Fluorogenic Peptide Cleavage Assay (MALT1 inhibition assay). Particulars: Avi-tagged FL MALT-1, Ac-LRSR-AMC peptide substrate, 30 min pre-incubation, 90 min reaction. It is filed as biochemical. The essentials: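 IC50 from sigmoidal fits of % inhibition, with fluorescence (ex 342, em 441 nm) from AMC released from the quenched LRSR peptide after 90 min at room temperature. Full-length Avi-tagged MALT1 saw compound for 30 min first; final DMSO 2%.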

Assay [2] relates to NF-kB. The assay can be described thus: NF-kB reporter assay in Jurkat cells stimulated with aCD3/aCD28/PMA. Type of assay: cell-based. The following applies: Homo sapiens, Jurkat, Jurkat cells, 1 hr compound incubation, aCD3/aCD28/PMA stimulation 4 hr, One-Glo readout; read-out: NF-kB Reporter Assay IC50. The essentials:
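Stimulation used final aCD3 5 μg/mL, aCD28 5 μg/mL and PMA 0.03 μg/mL for 4 hr at 37° C, after 1 hr compound pretreatment of 25,000 serum-starved Jurkat cells per well. One-Glo luminescence gave IC50 values.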

For the compound `Cn1ncc2cccc(NS(=O)(=O)c3ccc(-c4c[nH]nc4C(F)(F)F)nc3)c21` [Example I-85, N-(1-Methyl-1H-Indazol-7-yl)-6-(3-(Trifluoromethyl)-1H-Pyrazol-4-yl)Pyridine-3-Sulfonamide], the IC50 (usually the concentration at which inhibition is half-maximal) is over 2.5 µM in assay [1] and under 0.4 µM in assay [2].
The matching figures for `Cn1ncc2cccc(NS(=O)(=O)c3ccc(-c4cnn(C(F)F)c4)nc3)c21` [Example I-86, 6-(1-(Difluoromethyl)-1H-Pyrazol-4-yl)-N-(1-Methyl-1H-Indazol-7-yl)Pyridine-3-Sulfonamide]: over 2.5 µM and under 0.4 µM.
For `Cc1nn(C)cc1-c1ccc(S(=O)(=O)Nc2cccc3cnn(C)c23)cn1` [Example I-87, 6-(1,3-Dimethyl-1H-Pyrazol-4-yl)-N-(1-Methyl-1H-Indazol-7-yl)Pyridine-3-Sulfonamide], in that order: over 2.5 µM and under 0.4 µM.
For `Cc1c(-c2ccc(S(=O)(=O)Nc3cccc4cnn(C)c34)cn2)cnn1C` [Example I-88, 6-(1,5-Dimethyl-1H-Pyrazol-4-yl)-N-(1-Methyl-1H-Indazol-7-yl)Pyridine-3-Sulfonamide], in that order: over 2.5 µM and under 0.4 µM.
Regarding `Cc1nn(C)c(C)c1-c1ccc(S(=O)(=O)Nc2cccc3cnn(C)c23)cn1` [Example I-89, N-(1-Methyl-1H-Indazol-7-yl)-6-(1,3,5-Trimethyl-1H-Pyrazol-4-yl)Pyridine-3-Sulfonamide], the figures for the IC50 in assay [1] and in assay [2] were over 2.5 µM and under 0.4 µM, respectively.
For `Cn1cncc1-c1ccc(S(=O)(=O)Nc2cccc3cnn(C)c23)cn1` [Example I-90, 6-(1-Methyl-1H-Imidazol-5-yl)-N-(1-Methyl-1H-Indazol-7-yl)Pyridine-3-Sulfonamide], the half-inhibitory concentration (IC50) in assay [1] was over 2.5 µM; in assay [2], 0.4 to 1 µM.
The matching figures for `Cc1cc(-c2ccc(S(=O)(=O)Nc3cccc4cnn(C)c34)cn2)on1` [Example I-98, N-(1-Methyl-1H-Indazol-7-yl)-6-(3-Methylisoxazol-5-yl)Pyridine-3-Sulfonamide]: over 2.5 µM and under 0.4 µM.
For `Cn1ncc2cccc(NS(=O)(=O)c3ccc(-c4cncs4)nc3)c21` [Example I-101, N-(1-Methyl-1H-Indazol-7-yl)-6-(Thiazol-5-yl)Pyridine-3-Sulfonamide], in that order: under 0.4 µM and under 0.4 µM.
For `Cc1nc(C)c(-c2ccc(S(=O)(=O)Nc3cccc4cnn(C)c34)cn2)s1` [Example I-103, 6-(2,4-Dimethylthiazol-5-yl)-N-(1-Methyl-1H-Indazol-7-yl)Pyridine-3-Sulfonamide], in that order: 0.4 to 1 µM and under 0.4 µM.
With `COc1ccc2cnn(C)c2c1N(C)S(=O)(=O)c1ccc(-c2cc(C(F)(F)F)nn2C)nc1` [Example I-104, N-(6-Methoxy-1-Methyl-1H-Indazol-7-yl)-N-Methyl-6-(1-Methyl-3-(Trifluoromethyl)-1H-Pyrazol-5-yl)Pyridine-3-Sulfonamide], the IC50 in assay [1] and in assay [2] was under 0.4 µM each time.
As to `Cn1ncc2cccc(NS(=O)(=O)c3ccc(-n4cc(C(N)=O)cn4)nc3)c21` [Example I-105, 1-(5-(N-(1-Methyl-1H-Indazol-7-yl)Sulfamoyl)Pyridin-2-yl)-1H-Pyrazole-4-Carboxamide], the concentration for half-maximal inhibition (IC50) in assay [1] and in assay [2] was over 2.5 µM each time.
Regarding `COc1ccc2[nH]nc(C)c2c1NS(=O)(=O)c1ccc(-n2cc(C(F)(F)F)cn2)nc1` [Example I-106, N-(5-Methoxy-3-Methyl-1H-Indazol-4-yl)-6-(4-(Trifluoromethyl)-1H-Pyrazol-1-yl)Pyridine-3-Sulfonamide], the IC50 in assay [1] and in assay [2] was under 0.4 µM in each case.
Turning to `Cn1cc(-c2ccc(S(=O)(=O)Nc3cccc4cnn(C)c34)cn2)cn1` [Example I-107, N-(1-Methyl-1H-Indazol-7-yl)-6-(1-Methyl-1H-Pyrazol-4-yl)Pyridine-3-Sulfonamide], the IC50 in assay [1] was over 2.5 µM; in assay [2], under 0.4 µM.
The matching figures for `COc1cc(-c2ccc(S(=O)(=O)Nc3cccc4cnn(C)c34)cn2)ccn1` [Example I-108, 2′-Methoxy-N-(1-Methyl-1H-Indazol-7-yl)-[2,4′-Bipyridine]-5-Sulfonamide]: over 2.5 µM and under 0.4 µM.
The matching figures for `Cn1ncc2cccc(NS(=O)(=O)c3ccc(-c4cccnc4)nc3)c21` [Example I-109, N-(1-Methyl-1H-Indazol-7-yl)-[2,3′-Bipyridine]-5-Sulfonamide]: over 2.5 µM and under 0.4 µM.
The matching figures for `CN(C)c1ccc(-c2ccc(S(=O)(=O)Nc3cccc4cnn(C)c34)cn2)cn1` [Example I-110, 6′-(Dimethylamino)-N-(1-Methyl-1H-Indazol-7-yl)-[2,3′-Bipyridine]-5-Sulfonamide]: over 2.5 µM and under 0.4 µM.
For the compound `COc1cccc(-c2ccc(S(=O)(=O)Nc3cccc4cnn(C)c34)cn2)n1` [Example I-111, 6′-Methoxy-N-(1-Methyl-1H-Indazol-7-yl)-[2,2′-Bipyridine]-5-Sulfonamide], the results for the IC50 in assay [1] and in assay [2] were over 2.5 µM and under 0.4 µM, respectively.
With `Cn1cc(-c2ccc(S(=O)(=O)Nc3cccc4cnn(C)c34)cn2)ccc1=O` [Example I-112, 1′-Methyl-N-(1-Methyl-1H-Indazol-7-yl)-6′-Oxo-1′,6′-Dihydro-[2,3′-Bipyridine]-5-Sulfonamide], the IC50 in assay [1] and in assay [2] was over 2.5 µM each time.
Take `Cc1ncccc1-c1ccc(S(=O)(=O)Nc2cccc3cnn(C)c23)cn1` [Example I-113, 2′-Methyl-N-(1-Methylindazol-7-yl)-[2,3′-Bipyridine]-5-Sulfonamide]: the values for the 50% inhibitory concentration (IC50) in assay [1] and in assay [2] were over 2.5 µM and 0.4 to 1 µM, respectively.
The matching figures for `Cc1ncncc1-c1ccc(S(=O)(=O)Nc2cccc3cnn(C)c23)cn1` [Example I-115]: over 2.5 µM and over 2.5 µM.
For `Cn1ncc2cccc(NS(=O)(=O)c3ccc(-c4ccncc4)nc3)c21` [Example I-116, N-(1-METHYL-1H-INDAZOL-7-YL)-[2,4′-BIPYRIDINE]-5-SULFONAMIDE], in that order: over 2.5 µM and 0.4 to 1 µM.
The matching figures for `Cn1ccc(-c2ccc(S(=O)(=O)Nc3cccc4cnn(C)c34)cn2)cc1=O` [Example I-117, 1′-Methyl-N-(1-Methyl-1H-Indazol-7-yl)-2′-Oxo-1′,2′-Dihydro-[2,4′-Bipyridine]-5-Sulfonamide]: over 2.5 µM and over 2.5 µM.
For `Cn1ncc2cccc(NS(=O)(=O)c3ccc(-c4cccc(=O)[nH]4)nc3)c21` [Example I-118, N-(1-Methyl-1H-Indazol-7-yl)-6′-Oxo-1′,6′-Dihydro-[2,2′-Bipyridine]-5-Sulfonamide], the IC50 in assay [1] and in assay [2] was over 2.5 µM throughout.
As for `Cc1cc(-c2ccc(S(=O)(=O)Nc3cccc4cnn(C)c34)cn2)n(C)n1` [Example I-119, 6-(2,5-Dimethylpyrazol-3-yl)-N-(1-Methyl-Indazol-7-yl)Pyridine-3-Sulfonamide], the IC50 in assay [1] was over 2.5 µM; in assay [2], under 0.4 µM.
The matching figures for `Cn1ncc2cccc(NS(=O)(=O)c3ccc(-c4ccncc4F)nc3)c21` [Example I-120, 3′-Fluoro-N-(1-Methylindazol-7-yl)-[2,4′-Bipyridine]-5-Sulfonamide]: over 2.5 µM and under 0.4 µM.
